{"source": "patent US20230181746A1", "about": "“BENZOYLHYDRAZIDE-DERIVED HDAC DEGRADERS AS THERAPEUTICS FOR TREATING CANCER AND OTHER HUMAN DISEASES” (University of Florida Research Foundation, Inc., priority 2020, published 2023)", "key": {"[1]": {"biological_target": "T1, HDAC3 (in complex with the deacetylase activation domain of the human NCOR2 (amino acids 395-498)) (Homo sapiens, UniProt O15379)", "T1 construct": "purchased BPS Bioscience 50003", "T1 sequence (O15379 whole entry, the tested form may be a part)": "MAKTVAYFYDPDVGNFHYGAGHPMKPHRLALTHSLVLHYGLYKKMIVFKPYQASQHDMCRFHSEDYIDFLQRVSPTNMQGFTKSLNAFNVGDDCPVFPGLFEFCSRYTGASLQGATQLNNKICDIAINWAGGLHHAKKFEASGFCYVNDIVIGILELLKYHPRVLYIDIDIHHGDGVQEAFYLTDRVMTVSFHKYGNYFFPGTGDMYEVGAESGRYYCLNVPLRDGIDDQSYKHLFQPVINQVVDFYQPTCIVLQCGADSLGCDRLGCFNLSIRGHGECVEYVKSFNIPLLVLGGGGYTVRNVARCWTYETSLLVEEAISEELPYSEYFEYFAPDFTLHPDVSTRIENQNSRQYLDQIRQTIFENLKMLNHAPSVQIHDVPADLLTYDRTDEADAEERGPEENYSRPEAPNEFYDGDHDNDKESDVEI", "T1 sequence (Q9Y618 395-498 partner limits assumed)": "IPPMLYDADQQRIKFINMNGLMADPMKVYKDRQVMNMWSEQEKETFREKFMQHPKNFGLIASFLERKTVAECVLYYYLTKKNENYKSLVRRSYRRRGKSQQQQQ", "assay": "In vitro HDAC activity assay (HDAC-Glo I/II), HDAC3", "format": "biochemical", "details": "HDAC-Glo I/II; average of three independent assays ± standard deviation", "description": "(§1) Purified HDAC1, HDAC2, and HDAC3 (in complex with the deacetylase activation domain of the human NCOR2 (amino acids 395-498)) were obtained from Enzo Life Sciences (HDAC1, catalog # BML-SE456-0050) and BPS Bioscience (HDAC2, catalog #50002 and HDAC3, catalog #50003), respectively. The enzyme activities were tested using the HDAC-Glo I/II reagents (Promega) according to a protocol provided by the manufacturer."}, "HDAC2 [2]": {"biological_target": "T2, HDAC2 (Homo sapiens, UniProt Q92769)", "T2 sequence (Q92769 whole entry)": "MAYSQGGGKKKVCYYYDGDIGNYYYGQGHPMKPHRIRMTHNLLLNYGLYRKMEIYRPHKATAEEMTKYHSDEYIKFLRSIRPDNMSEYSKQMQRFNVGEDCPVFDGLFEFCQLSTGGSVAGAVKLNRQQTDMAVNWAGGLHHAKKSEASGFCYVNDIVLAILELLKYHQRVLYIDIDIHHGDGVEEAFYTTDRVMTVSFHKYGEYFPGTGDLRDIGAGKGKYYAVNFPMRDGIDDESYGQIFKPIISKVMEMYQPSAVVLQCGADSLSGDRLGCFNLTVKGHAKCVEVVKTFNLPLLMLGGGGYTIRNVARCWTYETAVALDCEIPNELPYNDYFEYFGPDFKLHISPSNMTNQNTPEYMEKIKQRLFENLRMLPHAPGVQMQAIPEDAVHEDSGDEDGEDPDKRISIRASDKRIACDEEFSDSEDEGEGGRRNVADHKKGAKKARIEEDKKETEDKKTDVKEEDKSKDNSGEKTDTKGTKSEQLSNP", "assay": "HDAC2 protein level in breast cancer cell lines, Western blot", "format": "cell-based", "details": "MDA-MB-468 cells, 14 h", "description": "FIG. 3A: Western blot showing HDAC protein levels in MDA-MB-468 cells treated with the indicated concentration of XZ9002 for 14 h. FIG. 3B: pretreatment with 1 μM MG132, or 10 μM VHL032 for 1 h blocked the degradation of HDAC3 by XZ9002 {125 nM}. […] NC: XZ9002-NC. FIG. 3C: time-dependent experiment in MDA-MB-468 cells after treatment with 125 nM XZ9002 at the indicated time points. FIG. 3D: MDA-MB-468 cells were incubated with 125 nM of XZ9002 for 14 h followed by drug washout, and incubation of the cells in drug-free medium for an additional time. Data are presented as representative figures of two independent experiments.\n(§2) The culture of the triple-negative breast cancer cell line MDA-MB-468 and the ER+ breast cancer cell line T47D was exposed to vehicle control (DMSO) and the indicated compounds at specified concentrations for 14 h. Cells were lysed for WB with antibodies against the indicated proteins. Antibodies against acetylated histones at specific sites (H3K27 and H4K5) and acetyl-lysine were used to assess levels of histone acetylation. Levels of HDAC3 were normalized against that of tubulin and % of HDAC3 protein levels in cells treated with the indicated compounds relative to that in DMSO control is shown.\nFIGS. 8A-8B show the cellular activity of XZ9002. […] Cells were lysed for WB. The relative HDAC3 protein level in each sample is shown. […]"}, "[3]": {"test_system": "histone acetylation (H3K27ac, H4K5ac, acetyl-lysine)", "assay": "Histone acetylation in cells, Western blot", "format": "cell-based", "details": "MDA-MB-468 cells; only moderate effects compared to 15 and CRBN-based PROTACs", "description": "as §2\nCell lines were obtained from ATCC and subsequently authenticated. Cells were cultured with DMEM supplemented with 10% bovine calf serum, penicillin to 10 units/mL, and streptomycin to 10 μg/mL. For viability assays, 5,000 cells/well were seeded in 96-well plates. Compounds at a specified concentration or DMSO were added 24 h later. Viability assays were performed 72 h after compound addition using the CellTiter-Glo reagents (Promega). For colony formation assay, cells (˜1,000 cells/well) were seeded in a 24-well plate in quadruplicates. At 24 h after seeding, DMSO, XZ9002, or XZ9002-NC were added at a specified concentration. […]"}, "MDA-MB-468 cells": {"test_system": "MDA-MB-468 cells", "assay": "Cell viability assay (CellTiter-Glo)", "format": "cell-based", "details": "MDA-MB-468, 72 h; similar trends in MDA-MB-231 and T47D cells", "description": "MDA-MB-468, MDA-MB-231, and T47D cells were treated with the indicated compounds at different concentrations for 72 h. Cell viability was assessed with CellTiter-Glo® reagents.\nCell lines were obtained from ATCC and subsequently authenticated. Cells were cultured with DMEM supplemented with 10% bovine calf serum, penicillin to 10 units/mL, and streptomycin to 10 μg/mL. For viability assays, 5,000 cells/well were seeded in 96-well plates. Compounds at a specified concentration or DMSO were added 24 h later. Viability assays were performed 72 h after compound addition using the CellTiter-Glo reagents (Promega). For colony formation assay, cells (˜1,000 cells/well) were seeded in a 24-well plate in quadruplicates. At 24 h after seeding, DMSO, XZ9002, or XZ9002-NC were added at a specified concentration. Medium was replaced with freshly prepared medium containing DMSO, XZ9002 or XZ9002-NC every five days until visible colonies appeared, typically in 15 to 20 days after initial cell seeding. Cells were fixed with 4% paraformaldehyde for 15 min and stained with 2% methylene blue in 20% ethanol for 30 min to 1 h. The cells were washed twice with distilled water and dried in air. For western blotting, cell cultures were exposed to compounds as indicated in relevant figures. Medium was removed from culture plate, and 1 x passive lysis buffer was then added, the plates were frozen at −80° C. overnight and thawed at room temperature. The total cell lysates were mixed with a one fifth volume of 6x SDS sample buffer, heated at 95° C. for 5 min and cooled on ice. The lysates were cleared by centrifugation and then subjected to SDS-PAGE and western blotting essentially as described. […]"}, "[4]": {"test_system": "NCI-60 panel of 60 cancer lines", "assay": "NCI-60 cell line panel proliferation", "format": "cell-based", "details": "five doses; leukemia, NSCLC, colon, CNS, melanoma, ovarian, renal, prostate and breast cancer lines", "description": "The indicated cancer cell lines were treated with XZ9002 at five different doses. The percentage growth relative to the cell numbers before compound exposure was plotted against the XZ9002 concentrations in the log scale."}, "HDAC2 [5]": {"biological_target": "T2, HDAC2", "assay": "In vitro HDAC activity assay (HDAC-Glo I/II), HDAC2", "format": "biochemical", "set-up": "purchased BPS Bioscience 50002", "details": "average of three independent assays ± standard deviation", "description": "as §1"}, "HDAC1": {"biological_target": "HDAC1 (Homo sapiens, UniProt Q13547)", "sequence (Q13547 whole entry)": "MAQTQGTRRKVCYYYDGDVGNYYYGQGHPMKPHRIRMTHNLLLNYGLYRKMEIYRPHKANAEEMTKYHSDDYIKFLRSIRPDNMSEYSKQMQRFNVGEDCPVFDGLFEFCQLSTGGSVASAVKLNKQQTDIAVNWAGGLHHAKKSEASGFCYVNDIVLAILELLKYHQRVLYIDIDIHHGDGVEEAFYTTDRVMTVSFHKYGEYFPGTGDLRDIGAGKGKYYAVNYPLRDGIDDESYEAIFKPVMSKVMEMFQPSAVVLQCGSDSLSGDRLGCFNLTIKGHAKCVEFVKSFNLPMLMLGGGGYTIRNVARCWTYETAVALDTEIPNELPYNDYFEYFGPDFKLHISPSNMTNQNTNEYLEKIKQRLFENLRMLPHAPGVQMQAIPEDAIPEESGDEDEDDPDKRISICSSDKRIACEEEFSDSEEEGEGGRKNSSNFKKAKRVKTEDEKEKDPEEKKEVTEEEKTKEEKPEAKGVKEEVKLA", "assay": "In vitro HDAC activity assay (HDAC-Glo I/II), HDAC1", "format": "biochemical", "set-up": "purchased Enzo Life Sciences BML-SE456-0050", "details": "average of three independent assays ± standard deviation", "description": "as §1"}, "HDAC3": {"biological_target": "HDAC3 (Homo sapiens, UniProt O15379)", "sequence (O15379 whole entry)": "as the sequence (O15379 whole entry, the tested form may be a part) above", "sequence (Q9Y618 395-498 partner limits assumed)": "as the sequence (Q9Y618 395-498 partner limits assumed) above", "assay": "HDAC3 degradation in MDA-MB-231 xenograft tumors", "format": "in vivo", "set-up": "from tissue; host or cells: MDA-MB-231 xenograft tumours from NSG mice", "details": "female NSG mice, MDA-MB-231 xenografts, 50 mg/kg i.p., tumors 24 h after dosing", "description": "NSG mice bearing MDA-MB-231 xenografts were dosed with vehicle or XZ9002 (50 mg/kg) by i.p. Tumors were dissected from euthanized mice 24 h after dosing. The tumor lysates were analyzed by WB. The quantification is shown in lower panels. ***: p<0.0001 (t-test vs vehicle)."}}}
{"smiles": "CCCNNC(=O)c1ccc(-c2ccc(NC(=O)CCCCCCC(=O)N[C@H](C(=O)N3C[C@H](O)C[C@H]3C(=O)N[C@@H](C)c3ccc(-c4scnc4C)cc3)C(C)(C)C)cc2)cc1", "note": "[XZ9002, N^1—((S)-1-((2S,4R)-4-hydroxy-2-(((S)-1-(4-(4-methylthiazol-5-yl)phenyl)ethyl)carbamoyl)pyrrolidin-1-yl)-3,3-dimethyl-1-oxobutan-2-yl)-N^5-(4′-(2-propylhydrazine-1-carbonyl)-[1,1′-biphenyl]-4-yl)octanediamide]", "values": [{"measurement": "IC50", "setting": "[1]", "result": "350 ± 70", "unit": "nM"}, {"measurement": "change in HDAC2 protein level", "setting": "HDAC2 [2]", "result": "no significant changes"}, {"measurement": "histone acetylation", "setting": "[3]", "result": "dose-dependently increased"}, {"measurement": "antiproliferative activity (in words)", "setting": "MDA-MB-468 cells", "result": "more potent in killing cancer cells"}, {"measurement": "inhibition of proliferation", "setting": "[4]", "result": "effectively inhibits the proliferation"}, {"measurement": "IC50", "setting": "HDAC2 [5]", "result": "1550 ± 70", "unit": "nM"}, {"measurement": "IC50", "setting": "HDAC1", "result": "650 ± 70", "unit": "nM"}, {"measurement": "HDAC3 degradation in xenograft tumor", "setting": "HDAC3", "result": "effectively degrade"}]}
